Test results as given in ChEMBL document CHEMBL1201862, “PubChem BioAssay data set” (2004).
The source made the active and inactive calls.

Legend:
[1] = target: Mitogen-activated protein kinase 10 (Homo sapiens, UniProt P53779); assay: Dose response biochemical screening assay for inhibitors of c-Jun N-Terminal Kinase 3 (JNK3). [Related pubchem assays: 746 ]
[2] = viability of uninfected HEp-2 cells – cell-based, HTS, cytotoxicity control for RSV inhibitor project, dose response (AID 2410); assay type: functional; conditions: human respiratory syncytial virus
[3] = target: T1, Epstein-Barr nuclear antigen 1 (Epstein-Barr virus (strain B95-8) (HHV-4) (Human herpesvirus 4), UniProt P03211); assay: inhibition of EBV nuclear antigen 1 DNA binding – biochemical, fluorescence polarization, 1536-well, dose response (AID 2381); parameters: species or system human gammaherpesvirus 4;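 further: fluorescence polarization of a Cy5 DNA probe bound by EBNA-1 protein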
T1 sequence (P03211 whole entry): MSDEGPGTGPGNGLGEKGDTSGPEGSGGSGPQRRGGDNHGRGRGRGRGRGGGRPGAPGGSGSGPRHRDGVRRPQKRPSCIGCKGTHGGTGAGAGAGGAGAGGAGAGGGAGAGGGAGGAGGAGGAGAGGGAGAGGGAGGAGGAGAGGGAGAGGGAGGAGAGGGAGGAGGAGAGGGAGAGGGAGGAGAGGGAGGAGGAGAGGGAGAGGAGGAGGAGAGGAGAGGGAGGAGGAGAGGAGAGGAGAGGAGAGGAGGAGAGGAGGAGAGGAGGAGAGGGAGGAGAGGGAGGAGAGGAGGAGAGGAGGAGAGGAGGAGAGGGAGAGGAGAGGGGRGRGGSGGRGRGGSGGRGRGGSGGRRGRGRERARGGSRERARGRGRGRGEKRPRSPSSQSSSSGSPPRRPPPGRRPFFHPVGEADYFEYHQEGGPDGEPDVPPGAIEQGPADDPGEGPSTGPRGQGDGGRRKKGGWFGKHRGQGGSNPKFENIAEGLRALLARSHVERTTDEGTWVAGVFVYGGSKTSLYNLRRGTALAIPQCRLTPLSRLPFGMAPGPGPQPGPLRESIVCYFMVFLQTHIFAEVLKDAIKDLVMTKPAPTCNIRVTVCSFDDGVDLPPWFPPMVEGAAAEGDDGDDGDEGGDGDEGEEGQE

[4] = target: T2, Lytic switch protein BZLF1 (Epstein-Barr virus (strain B95-8) (HHV-4) (Human herpesvirus 4), UniProt P03206); assay: inhibition of BZLF1 ZTA DNA binding – biochemical, fluorescence polarization, Epstein-Barr virus, 1536-well, counter-screen for EBNA-1 inhibitor project, dose response (AID 2377); parameters: species or system human gammaherpesvirus 4;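 further: fluorescence polarization of Cy5-labelled ZRE DNA probe bound by purified Zta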
T2 sequence (P03206 whole entry): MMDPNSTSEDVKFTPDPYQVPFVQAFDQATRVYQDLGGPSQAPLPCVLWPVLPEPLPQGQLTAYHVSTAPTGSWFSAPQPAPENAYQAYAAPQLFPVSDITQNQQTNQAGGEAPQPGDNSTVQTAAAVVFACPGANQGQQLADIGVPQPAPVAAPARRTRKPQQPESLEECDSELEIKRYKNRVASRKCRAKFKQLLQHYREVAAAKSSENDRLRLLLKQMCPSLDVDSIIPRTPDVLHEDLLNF

[5] = Trypanosoma cruzi growth suppression in host cells – NIH3T3 host cells, beta-gal luminescence, confirmation (AID 2044); assay type: functional, cell-based;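 further: intracellular parasites grown in NIH/3T3 mouse fibroblasts as host cells; luminescent beta-galactosidase reporter signal from transgenic T. cruzi replicating inside host cells; inhibitors lower the luminescence signal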
[6] = NIH3T3 cell viability loss – ATP luminescence, mouse fibroblasts, counter-screen, dose response (AID 2010); assay type: functional, cell-based;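 further: cells exposed to compound for about 90 hours before reading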
[7] = target: T3, Short transient receptor potential channel 4 (Mus musculus, UniProt Q9QUQ5); assay: calcium entry via TRPC4 opening agents – cell-based, HEK293 TRPC4/mu-opioid, Fluo-4 calcium, dose response (AID 434937); assay type: functional
T3 sequence (Q9QUQ5 whole entry): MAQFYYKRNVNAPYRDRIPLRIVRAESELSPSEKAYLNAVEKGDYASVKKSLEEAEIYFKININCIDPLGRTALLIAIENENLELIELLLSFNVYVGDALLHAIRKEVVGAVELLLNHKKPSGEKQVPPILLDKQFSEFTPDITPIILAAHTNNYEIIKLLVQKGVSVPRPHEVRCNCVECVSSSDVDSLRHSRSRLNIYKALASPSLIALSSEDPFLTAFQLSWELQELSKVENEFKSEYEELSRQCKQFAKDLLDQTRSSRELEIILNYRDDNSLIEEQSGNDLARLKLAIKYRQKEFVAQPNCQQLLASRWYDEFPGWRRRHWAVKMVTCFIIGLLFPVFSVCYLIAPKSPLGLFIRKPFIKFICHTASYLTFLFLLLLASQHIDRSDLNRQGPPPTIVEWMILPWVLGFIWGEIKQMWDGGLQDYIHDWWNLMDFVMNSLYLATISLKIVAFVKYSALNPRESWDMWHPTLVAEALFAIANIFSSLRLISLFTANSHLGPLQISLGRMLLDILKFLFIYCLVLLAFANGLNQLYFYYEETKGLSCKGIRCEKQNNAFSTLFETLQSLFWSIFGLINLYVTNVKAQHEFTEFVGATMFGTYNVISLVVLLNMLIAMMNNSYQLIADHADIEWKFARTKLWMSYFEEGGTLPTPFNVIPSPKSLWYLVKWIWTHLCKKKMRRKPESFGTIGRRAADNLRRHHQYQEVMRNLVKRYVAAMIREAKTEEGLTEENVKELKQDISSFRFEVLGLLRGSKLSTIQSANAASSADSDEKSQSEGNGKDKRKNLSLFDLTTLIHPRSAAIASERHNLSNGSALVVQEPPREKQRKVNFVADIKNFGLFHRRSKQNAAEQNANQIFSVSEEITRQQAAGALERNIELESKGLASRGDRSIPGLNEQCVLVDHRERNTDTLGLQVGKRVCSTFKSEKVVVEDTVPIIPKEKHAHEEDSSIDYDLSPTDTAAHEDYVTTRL

[8] = cells
[9] = viability loss in THP-1 monocytes – THP-1 cells, cytotoxicity control for Vif-APOBEC3G degradation inhibitor project, dose response (AID 1117359); assay type: functional; conditions: THP-1
[10] = target: Paired box protein Pax-8 (Homo sapiens, UniProt Q06710); assay: PAX8 transcriptional activity inhibition in RMG-I – RMG-I cells, luciferase, cherry-pick, dose response (AID 687027); assay type: functional, cell-based;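 further: luciferase reporter driven by Pax8 target thyroperoxidase promoter measured by SteadyGlo luminescence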
Sequence of Paired box protein Pax-8 (Q06710 whole entry): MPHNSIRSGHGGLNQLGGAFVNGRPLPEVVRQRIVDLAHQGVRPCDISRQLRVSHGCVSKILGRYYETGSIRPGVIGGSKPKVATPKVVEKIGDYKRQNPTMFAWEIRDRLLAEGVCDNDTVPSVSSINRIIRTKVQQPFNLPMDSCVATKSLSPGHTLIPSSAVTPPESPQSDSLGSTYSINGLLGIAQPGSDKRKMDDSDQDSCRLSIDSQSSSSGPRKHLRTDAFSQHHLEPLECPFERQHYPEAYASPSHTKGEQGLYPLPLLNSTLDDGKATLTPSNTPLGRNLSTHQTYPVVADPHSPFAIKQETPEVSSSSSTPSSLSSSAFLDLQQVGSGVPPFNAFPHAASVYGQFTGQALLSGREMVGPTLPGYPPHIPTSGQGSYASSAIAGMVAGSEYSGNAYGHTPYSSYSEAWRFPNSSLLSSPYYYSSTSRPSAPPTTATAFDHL

[11] = OVCAR8 cell viability loss – plate reader, dry powder samples, PAX8 project, dose response (AID 743197); assay type: functional, cell-based; conditions: OVCAR-8
[12] = cells; remark: listed apart in the source
[13] = target: T4, Mannose-6-phosphate isomerase (Homo sapiens, UniProt P34949); assay: MPI inhibition at elevated mannose 6-phosphate – biochemical, fluorescence intensity, high mannose 6-phosphate, primary screen (AID 1220)
T4 sequence (P34949 whole entry): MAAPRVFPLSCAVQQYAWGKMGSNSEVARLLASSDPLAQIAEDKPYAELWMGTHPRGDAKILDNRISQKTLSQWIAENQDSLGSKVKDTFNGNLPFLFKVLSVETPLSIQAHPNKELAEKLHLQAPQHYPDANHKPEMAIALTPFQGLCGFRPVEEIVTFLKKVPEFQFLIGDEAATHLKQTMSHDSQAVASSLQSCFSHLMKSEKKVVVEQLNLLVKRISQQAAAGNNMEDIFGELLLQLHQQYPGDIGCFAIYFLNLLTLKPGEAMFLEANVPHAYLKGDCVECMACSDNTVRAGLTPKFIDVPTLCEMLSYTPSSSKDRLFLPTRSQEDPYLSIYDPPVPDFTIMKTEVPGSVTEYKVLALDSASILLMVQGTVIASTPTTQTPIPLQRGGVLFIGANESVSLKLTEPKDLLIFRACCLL

[14] = target: T5, Rac GTPase-activating protein 1 (Homo sapiens, UniProt Q9H0H5); assay: blockers of MgcRacGAP-driven Rac1 GTP hydrolysis – biochemical, ADP Hunter fluorescence, primary and confirmatory, confirmation (AID 624330); assay type: functional
T5 sequence (Q9H0H5 whole entry): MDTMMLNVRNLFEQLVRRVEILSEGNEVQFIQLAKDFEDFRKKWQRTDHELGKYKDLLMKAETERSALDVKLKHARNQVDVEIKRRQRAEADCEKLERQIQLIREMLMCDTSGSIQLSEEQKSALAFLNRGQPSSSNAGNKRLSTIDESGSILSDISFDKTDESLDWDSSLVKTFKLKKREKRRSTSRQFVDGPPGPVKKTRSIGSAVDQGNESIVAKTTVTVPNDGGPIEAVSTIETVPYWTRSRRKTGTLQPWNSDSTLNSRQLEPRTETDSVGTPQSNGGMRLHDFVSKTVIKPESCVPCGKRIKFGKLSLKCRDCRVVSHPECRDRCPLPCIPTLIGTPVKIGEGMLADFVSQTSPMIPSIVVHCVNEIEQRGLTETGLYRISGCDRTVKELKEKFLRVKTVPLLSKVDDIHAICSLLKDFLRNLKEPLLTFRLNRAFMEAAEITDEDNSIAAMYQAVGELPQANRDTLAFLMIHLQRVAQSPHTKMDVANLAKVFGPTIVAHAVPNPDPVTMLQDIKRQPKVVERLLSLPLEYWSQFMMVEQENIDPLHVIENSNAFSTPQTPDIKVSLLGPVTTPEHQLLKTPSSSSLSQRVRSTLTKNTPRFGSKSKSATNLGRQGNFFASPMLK

[15] = growth inhibition of yeast DHODH-expressing 3D7 parasites – SYBR Green, dry powder samples, dose response (AID 1159570); assay type: functional, cell-based;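 further: parasite growth measured after 72 hours of compound exposure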
[16] = P. falciparum Dd2 growth inhibitors, dose response, SYBR Green, cherry-picked samples (AID 1159567); assay type: functional, cell-based
[17] = Dd2 malaria parasite growth inhibition potency – SYBR Green, dry powder samples, dose response (AID 1159566); assay type: functional, cell-based;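 further: potency for growth inhibition with lower SYBR green DNA signal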
[18] = growth inhibition of PfATP4-mutant resistant parasites – NITD609-resistant line, SYBR Green, dry powder, dose response (AID 1159571); assay type: functional, cell-based;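 further: parasites synchronized at ring stage by sorbitol before testing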
[19] = NIH-3T3 fibroblast cytotoxicity, dose response, cytotoxicity control, cell-based, fluorescence, Alamar Blue, secondary assay (AID 2327); assay type: functional;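 further: NIH-3T3 mouse fibroblasts cultured with fluconazole at 8 µg/mL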
[20] = fluconazole-exposed Candida albicans growth modulators – fluorescence, retest, confirmation (AID 2467); assay type: functional, cell-based
[21] = system: INS1; assay: INS-1E survival protection against cytokine death – cell-based, luminescence, retest, dose response (AID 449756); assay type: functional; conditions: Rattus norvegicus;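 further: cell death triggered by IL-1 beta plus TNF-alpha plus IFN-gamma mixture; protective hits raise ATP signal compared with cytokine alone wells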

Sequence of Mitogen-activated protein kinase 10 (P53779 whole entry): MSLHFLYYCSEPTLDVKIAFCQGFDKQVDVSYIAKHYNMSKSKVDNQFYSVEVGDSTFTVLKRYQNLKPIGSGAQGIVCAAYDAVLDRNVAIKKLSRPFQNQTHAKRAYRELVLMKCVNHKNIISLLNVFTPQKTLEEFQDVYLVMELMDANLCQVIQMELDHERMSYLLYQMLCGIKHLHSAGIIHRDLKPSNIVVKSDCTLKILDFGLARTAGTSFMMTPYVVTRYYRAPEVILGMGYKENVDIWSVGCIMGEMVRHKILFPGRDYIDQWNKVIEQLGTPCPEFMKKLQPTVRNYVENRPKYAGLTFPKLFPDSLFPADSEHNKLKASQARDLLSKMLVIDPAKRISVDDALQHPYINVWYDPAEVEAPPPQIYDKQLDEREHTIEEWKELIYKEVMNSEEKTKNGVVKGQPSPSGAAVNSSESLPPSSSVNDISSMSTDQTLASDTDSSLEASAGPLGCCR

For `CCOC(=O)c1ccc(Cn2cnc3ccccc3c2=O)cc1`, the IC50 [1] was 12.3 µM (not active).
With `COC(=O)c1sccc1NC(=O)CN1CCN(c2ccc(F)cc2)CC1` the CC50 [2] was 22.2 µM (active) and the IC50 [1] was 15.6 µM (not active).
For `COc1ccc(-c2cn3c(C)c(C(=O)NCc4ccc5c(c4)OCO5)sc3n2)cc1`, the IC50 [3] was 4.84 µM (active) and the IC50 [4] was > 111 µM (not active).
For `CN(CCOc1ccc(Br)cc1)CC(O)c1ccccc1` (stereo not given), the EC50 [5] was < 0.1 µM (active), the EC50 [6] was > 60 µM (not active) and the EC50 [7] was 1.33 µM (active). For the same compound, the EC50 [8] was 0.269 µM (active).
With `COc1ccc(/C=C/CN2CCN(Cc3ccccc3)C(CCO)C2)cc1` (stereo not given) the CC50 [9] was > 40 µM (active).
In the case of `O=C(C[C@@H]1C[C@@H]2c3cc(NS(=O)(=O)c4ccc(F)cc4)ccc3O[C@@H]2[C@@H](CO)O1)NCc1ccc(-c2ccccc2)cc1`, the AC50 [10] is reported as 4.41 µM (active) and the AC50 [11] is reported as > 70 µM (inactive).
In the case of `C/C(N)=C(/C#N)C(=O)CN1C(=O)NC(Cc2c[nH]c3ccccc23)C1=O` (stereo not given), the IC50 [12] is reported as 1.91 µM (active).
With `CCOC(=O)c1sc(/N=C/c2c(O)ccc3ccccc23)cc1C` the IC50 [13] was > 50 µM (not active) and the IC50 [14] was 139 µM (active).
For `COc1ccc2c3c([nH]c2c1)[C@H](CO)N(C(=O)C1CCCCC1)CC31CCN(Cc2nccs2)CC1`, the AC50 [15] was 0.158 µM (active), the AC50 [16] was 0.833 µM (active) and the AC50 [17] was 0.183 µM (active). The AC50 [18] was 0.198 µM (active).
For `CCN1/C(=C/c2cccc[n+]2C)Sc2ccc(OC)cc21`, the EC50 [19] was > 150 µM (inactive), the EC50 [20] was 0.961 µM (active) and the EC50 [5] was < 0.1 µM (active). For the same compound, the EC50 [6] was > 60 µM (not active), the AC50 [21] was 1.65 µM (active) and the EC50 [8] was 0.084 µM (active).
